Laboratory results reported in article PMC9820345, “Metal Complexes of a 5-Nitro-8-Hydroxyquinoline-Proline Hybrid with Enhanced Water Solubility Targeting Multidrug Resistant Cancer Cells” (International Journal of Molecular Sciences, 2022).

Columns and labels:
[1] = Formation constants of Fe(II) complexes by UV-vis spectrophotometric titrations; assay type: physicochemical; conditions: I = 0.1 M KCl, 25.0 °C
Experimental: UV-vis titrations were performed to determine the formation (overall stability) constants (β) for the complexes of HQNO2-L-Pro formed with Fe(III) and Fe(II) ions (Figures S10 and S11). In the latter case, titrations were performed in a laboratory glove box. The calculations were complicated by the overlapping feature of the ligand bands and the charge transfer bands of the complexes. Based on the absorption spectra Figures S10a and S11a), formation of mono, bis, and tris complexes were found in both chemical systems; obtained constants are collected in Table 2. […] Based on the concentration distribution diagrams (see Figure S10b for Fe(III) and Figure S11b for Fe(II)), it can be concluded that the tris complexes are the dominant species at pH 7.4 in the case of Fe(III), while with Fe(II) both tris and bis-ligand species are formed under the conditions of the titrations.
An Agilent Cary 8454 diode array spectrophotometer (Santa Clara, CA, USA) was used to obtain UV-vis spectra in the wavelength range 200–1000 nm, while spectra were recorded for the Fe(II)-containing samples using an Avantes (Avantes B.V., Apeldoorn, The Nederlands) AvaSpec-ULS2048CL-EVO spectrometer with an AvaLight-DHc light source and FDP-7UVIR200-2-VAR transmission dip probe. The titrations for the Fe(II)-containing samples were performed in a laboratory glove box (GP(Campus), Jacomex) (O2 content ≤ 1 ppm). The path length (ℓ) was 1 cm in most cases (the actual ℓ is always indicated in the legends of the figures). The concentrations of the ligands and complexes were between 40 and 200 µM, and 0.2 M KNO3 for the organometallic complexes or 0.1 M KCl for the Fe(II/III), Cu(II), and Zn(II) complexes were used to adjust the constant ionic strength. For HSA containing samples, complex concentrations were 50 µM, and 0.5, and 2 equiv. biomolecules were added for kinetic studies, respectively. For HSA model containing samples, complex concentrations were 50 µM, and the model concentrations were 0–150 µM and 0–500 µM, respectively, and the pH was 7.4 (PBS’). Spectra were always background and baseline corrected. The computer program HypSpec was used to obtain stability constants. Hydrolysis constants of the Fe(III), Fe(II), RuCym, and RhCp* species were included in the speciation models (see Table S4 with the data taken from References).

[2] = Formation constants of Zn(II) complexes by UV-vis spectrophotometric titrations; assay type: physicochemical; conditions: I = 0.1 M KCl, 25.0 °C, data evaluated at pH < 8
Experimental: Complexation of HQNO2-L-Pro with Zn(II) was studied by UV-vis and ^1H NMR spectroscopy (Figure 6). Comparing the UV-vis spectra recorded for the ligand in the presence and in the absence of Zn(II) with increasing pH, complex formation was evident from the UV-vis spectral changes at pH < ~8; however, in the basic pH range the spectra resembled more and more those of the free ligand. Based on the spectra recorded at pH < 8, formation constants for species [Zn(HL)]^+ and [Zn(HL)2] were determined (Table 2).
An Agilent Cary 8454 diode array spectrophotometer (Santa Clara, CA, USA) was used to obtain UV-vis spectra in the wavelength range 200–1000 nm, while spectra were recorded for the Fe(II)-containing samples using an Avantes (Avantes B.V., Apeldoorn, The Nederlands) AvaSpec-ULS2048CL-EVO spectrometer with an AvaLight-DHc light source and FDP-7UVIR200-2-VAR transmission dip probe. The titrations for the Fe(II)-containing samples were performed in a laboratory glove box (GP(Campus), Jacomex) (O2 content ≤ 1 ppm). The path length (ℓ) was 1 cm in most cases (the actual ℓ is always indicated in the legends of the figures). The concentrations of the ligands and complexes were between 40 and 200 µM, and 0.2 M KNO3 for the organometallic complexes or 0.1 M KCl for the Fe(II/III), Cu(II), and Zn(II) complexes were used to adjust the constant ionic strength. […]

[3] = system: tested cancer cell lines (MES-SA, MES-SA/Dx5, Colo205, Colo320); assay: In vitro cytotoxicity, summary over the tested cancer cell lines; assay type: cell-based; conditions: Homo sapiens, range over MES-SA
Experimental: The in vitro cytotoxicity of HQNO2-L-Pro and its RuCym and RhCp* complexes was assayed in two chemosensitive and resistant cell pairs to reveal their potential MDR selective toxicity. On the one hand, the parental human uterine sarcoma MES-SA cell line and its P-gp positive MDR derivative MES-SA/Dx5 cell line were applied; on the other hand, the human colon adenocarcinoma Colo205 cell line and its doxorubicin-resistant counterpart, the Colo320 cell line, were involved. The determined IC50 values using 72 h (Colo205 and Colo320) or 144 h incubation time (MES-SA and MES-SA/Dx5) are shown in Table 4. Doxorubicin was used as a control, and IC50 values obtained for the analogous HQCl-L-Pro compounds are also shown for comparison. […] The lower cytotoxicity of HQNO2-L-Pro is most likely due to its very strong hydrophilic features.
Inhibition of the cell growth (expressed as IC50: inhibitory concentration that reduces by 50% the growth of the cells exposed to the tested compounds) was determined from the sigmoid curve where 100 − ((ODsample − ODmedium control)/(ODcell control − ODmedium control)) × 100 values were plotted against the logarithm of compound concentrations. […]

logβ [M(HL)2] [1]: 32.74 ± 0.03
logβ [M(HL)3] [1]: 47.60 ± 0.06
logβ [M(HL)] [1]: 16.52 ± 0.03
logβ [M(L)] [1]: 8.39 ± 0.03
logβ [M(HL)2] [2]: 33.71 ± 0.06
logβ [M(HL)] [2]: 17.36 ± 0.03
SMILES: O=C(O)[C@@H]1CCCN1Cc1cc([N+](=O)[O-])c2cccnc2c1O [HQNO2-L-Pro, (2S)-1-((8-hydroxy-5-nitroquinolin-7-yl)methyl)pyrrolidin-1-ium-2-carboxylate]
IC50 [3]: 32.4 to 226 µM
